Laboratory results published in US20230081426A1, “COMPOUNDS AND METHODS FOR KRAS MODULATION AND INDICATIONS THEREFOR” (Plexxikon Inc., priority 2020, published 2023).

Tests used:
[1] = target: T1, G12D-mutant human KRAS (amino acid residues 1-188) (Homo sapiens, UniProt P01116, G12D); assay: KRAS Binding Disruption Assay (AlphaScreen; biotinylated KRpep-2d analogue or RAF1-RBD), G12D; settings: KRAS G12D; geometric mean; read-out: KRAS GMean IC50 (uM) MUTATION: G12D
T1 construct: G12D or G12C-mutant human KRAS (amino acid residues 1-188) with FLAG tag; made in house; host or cells: E. coli
How it was run: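 Mutant KRAS (5-20 nM) incubated 1 h at 25° C with test compound and 5-20 nM biotinylated KRpep-2d analogue or RAF1-RBD in 20 mM HEPES pH 7.5, 100 mM NaCl, 5 mM MgCl2, 0.01% Tween-20, 0.01% BSA.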

[2] = target: T2, G12C-mutant human KRAS (amino acid residues 1-188) (Homo sapiens, UniProt P01116, G12C); assay: KRAS Binding Disruption Assay (AlphaScreen; biotinylated KRpep-2d analogue or RAF1-RBD), G12C; settings: geometric mean, read-out: KRAS GMean IC50 (uM) MUTATION: G12C
T2 construct: G12D or G12C-mutant human KRAS (amino acid residues 1-188) with FLAG tag; made in house; host or cells: E. coli
Experimental: Compound binding disrupts the interaction of KRpep-2d or RAF1-RBD with KRAS, leading to a decrease in Alpha signal.
All assay components were prepared in 20 mM HEPES (pH 7.5), 100 mM NaCl, 5 mM MgCl2, 0.01% Tween-20, and 0.01% BSA. Biotinylated analogues of KRpep-2d were custom synthesized. The binding disruption assays were performed using 5-20 nM of mutant KRAS and 5-20 nM of either biotinylated KRpep-2d analogue or RAF1-RBD. 19 μL of KRAS protein and 4 μL of biotinylated KRpep-2d or RAF1-RBD were added to the wells of a 384-well plate containing 1 μL of various concentrations of test compound or DMSO vehicle. 16 wells containing KRAS, biotinylated KRpep-2d or RAF1-RBD, and 5% DMSO served as high controls. 16 wells containing KRAS only and 5% DMSO served as low controls. Binding reactions were incubated for 1 hour at 25° C., then Anti-Flag Acceptor and Streptavidin Donor Alpha beads were added at a final concentration of 10 μg/mL for an additional hour at room temperature. Alpha signal was read out on a Perkin Elmer Envision HTS instrument. The percentage inhibition at individual compound concentrations relative to high and low controls was calculated. The data were analyzed by using nonlinear regression to generate IC50 values.

[3] = target: T3, G12V-mutant human KRAS (amino acid residues 1-188) (Homo sapiens, UniProt P01116, G12V); assay: KRAS Binding Competition Assay (AlphaScreen; biotinylated KRpep-2d analogue), G12V; settings: geometric mean, read-out: KRAS GMean IC50 (uM) MUTATION: G12V
T3 construct: G12V-mutant human KRAS (amino acid residues 1-188) with FLAG tag was purified from E. coli; made in house; host or cells: E. coli

Structure (SMILES): CC(F)(F)COc1nc(N2C[C@H]3CC[C@@H](C2)N3)c2ccc(-c3cc(O)cc4ccccc34)c(F)c2n1 [P-0748, 4-(4-((1R,5S)-3,8-diazabicyclo[3.2.1]octan-3-yl)-2-(2,2-difluoropropoxy)-8-fluoroquinazolin-7-yl)naphthalen-2-ol]
- IC50 [1]: 0.0001 to 10 µM
- IC50 [2]: 10 to 100 µM

Structure (SMILES): O=C(CCO)Nc1nc(N2C[C@H]3CC[C@@H](C2)N3)c2ccc(-c3cc(O)cc4ccccc34)c(F)c2n1 [P-0655, N-(4-((1R,5S)-3,8-diazabicyclo[3.2.1]octan-3-yl)-8-fluoro-7-(3-hydroxynaphthalen-1-yl)quinazolin-2-yl)-3-hydroxypropanamide]
- IC50 [1]: 0.0001 to 10 µM
- IC50 [2]: 100 to 1000 µM

Structure (SMILES): CC1(O)CN(c2nc(N3C[C@H]4CC[C@@H](C3)N4)c3ccc(-c4cc(O)cc5ccccc45)c(F)c3n2)C1 [P-0792, 1-(4-((1R,5S)-3,8-diazabicyclo[3.2.1]octan-3-yl)-8-fluoro-7-(3-hydroxynaphthalen-1-yl)quinazolin-2-yl)-3-methylazetidin-3-ol]
- IC50 [1]: 0.0001 to 10 µM
- IC50 [2]: 10 to 100 µM

Structure (SMILES): CC(C)(COc1nc(N2C[C@H]3CC[C@@H](C2)N3)c2ccc(-c3cc(O)cc4ccccc34)c(F)c2n1)C(=O)O [P-0647, 3-((4-((1R,5S)-3,8-diazabicyclo[3.2.1]octan-3-yl)-8-fluoro-7-(3-hydroxynaphthalen-1-yl)quinazolin-2-yl)oxy)-2,2-dimethylpropanoic acid]
- IC50 [1]: 0.0001 to 10 µM
- IC50 [2]: 10 to 100 µM

Structure (SMILES): Cc1cccc2cccc(-c3ccc4c(N5C[C@H]6CC[C@@H](C5)N6C(=O)CC#N)nc(OCC56CCCN5CCC6)nc4c3F)c12 [P-0813, 3-((1R,5S)-3-(8-fluoro-7-(8-methylnaphthalen-1-yl)-2-((tetrahydro-1H-pyrrolizin-7a(5H)-yl)methoxy)quinazolin-4-yl)-3,8-diazabicyclo[3.2.1]octan-8-yl)-3-oxopropanenitrile]
- IC50 [2]: 0.0001 to 10 µM

Structure (SMILES): CN1CCC[C@H]1COc1nc(N2C[C@H]3CC[C@@H](C2)N3)c2ccc(-c3c[nH]c4ccc(C#N)cc34)c(F)c2n1 [P-0313, 3-(4-((1R,5S)-3,8-diazabicyclo[3.2.1]octan-3-yl)-8-fluoro-2-(((S)-1-methylpyrrolidin-2-yl)methoxy)quinazolin-7-yl)-1H-indole-5-carbonitrile]
- IC50 [1]: 10 to 100 µM
- IC50 [3]: 100 to 1000 µM

Structure (SMILES): CNCC(=O)N1[C@@H]2CC[C@H]1CN(c1nc(OC[C@@H]3CCCN3C)nc3c(F)c(-c4cc(O)cc5ccccc45)ccc13)C2 [P-0426, 1-((1R,5S)-3-(8-fluoro-7-(3-hydroxynaphthalen-1-yl)-2-(((S)-1-methylpyrrolidin-2-yl)methoxy)quinazolin-4-yl)-3,8-diazabicyclo[3.2.1]octan-8-yl)-2-(methylamino)ethan-1-one]
- IC50 [1]: 0.0001 to 10 µM
- IC50 [3]: 10 to 100 µM

Structure (SMILES): Cc1ccc2[nH]ncc2c1-c1c(F)cc2c(N3C[C@H]4CC[C@@H](C3)N4)nc(OC[C@@H]3CCCN3C)nc2c1F [P-0303, 4-((1R,5S)-3,8-diazabicyclo[3.2.1]octan-3-yl)-6,8-difluoro-7-(5-methyl-1H-indazol-4-yl)-2-(((S)-1-methylpyrrolidin-2-yl)methoxy)quinazoline]
- IC50 [1]: 0.0001 to 10 µM
- IC50 [3]: 10 to 100 µM

Structure (SMILES): C[C@H](O)C(=O)N1[C@@H]2CC[C@H]1CN(c1nc(OC[C@@H]3CCCN3C)nc3c(F)c(-c4cc(O)cc5ccccc45)ccc13)C2 [P-0394, (S)-1-((1R,5S)-3-(8-fluoro-7-(3-hydroxynaphthalen-1-yl)-2-(((S)-1-methylpyrrolidin-2-yl)methoxy)quinazolin-4-yl)-3,8-diazabicyclo[3.2.1]octan-8-yl)-2-hydroxypropan-1-one]
- IC50 [1]: 0.0001 to 10 µM
- IC50 [3]: 0.0001 to 10 µM

Structure (SMILES): Fc1c(-c2c[nH]c3ccc(C(F)(F)F)cc23)ccc2c(N3C[C@H]4CC[C@@H](C3)N4)nc(OCC34CCCN3CCC4)nc12 [P-0610, 4-((1R,5S)-3,8-diazabicyclo[3.2.1]octan-3-yl)-8-fluoro-2-((tetrahydro-1H-pyrrolizin-7a(5H)-yl)methoxy)-7-(5-(trifluoromethyl)-1H-indol-3-yl)quinazoline]
- IC50 [1]: 0.0001 to 10 µM
- IC50 [3]: 100 to 1000 µM

Structure (SMILES): CN1CCC[C@H]1COc1nc(N2[C@@H]3CC[C@H]2CN(C(=O)c2ncn[nH]2)C3)c2ccc(-c3cc(O)cc4ccccc34)cc2n1 [P-0230, ((1R,5S)-8-(7-(3-hydroxynaphthalen-1-yl)-2-(((S)-1-methylpyrrolidin-2-yl)methoxy)quinazolin-4-yl)-3,8-diazabicyclo[3.2.1]octan-3-yl)(1H-1,2,4-triazol-5-yl)methanone]
- IC50 [1]: 10 to 100 µM
- IC50 [3]: 10 to 100 µM

Structure (SMILES): CN1CCC[C@H]1COc1nc(N2C[C@H]3CC[C@@H](C2)N3C(=O)CCC(N)=O)c2ccc(-c3cc(O)cc4ccccc34)c(F)c2n1 [P-0399, 4-((1R,5S)-3-(8-fluoro-7-(3-hydroxynaphthalen-1-yl)-2-(((S)-1-methylpyrrolidin-2-yl)methoxy)quinazolin-4-yl)-3,8-diazabicyclo[3.2.1]octan-8-yl)-4-oxobutanamide]
- IC50 [1]: 0.0001 to 10 µM
- IC50 [3]: 0.0001 to 10 µM

Structure (SMILES): CN1CCC[C@H]1COc1nc(N2C[C@H]3CC[C@@H](C2)N3)c2ccc(-c3nc(N)cc4cccnc34)c(F)c2n1 [P-0379, 8-(4-((1R,5S)-3,8-diazabicyclo[3.2.1]octan-3-yl)-8-fluoro-2-(((S)-1-methylpyrrolidin-2-yl)methoxy)quinazolin-7-yl)-1,7-naphthyridin-6-amine]
- IC50 [1]: 10 to 100 µM
- IC50 [3]: 100 to 1000 µM

Structure (SMILES): CN1CCC[C@H]1COc1nc(N2[C@@H]3CC[C@H]2CN(C(=O)CC2CCNCC2)C3)c2ccc(-c3cc(O)cc4ccccc34)cc2n1 [P-0189, 1-((1R,5S)-8-(7-(3-hydroxynaphthalen-1-yl)-2-(((S)-1-methylpyrrolidin-2-yl)methoxy)quinazolin-4-yl)-3,8-diazabicyclo[3.2.1]octan-3-yl)-2-(piperidin-4-yl)ethan-1-one]
- IC50 [1]: 10 to 100 µM
- IC50 [3]: 10 to 100 µM

Structure (SMILES): CN1CCC[C@H]1COc1nc(N2[C@@H]3CC[C@H]2CNC3)c2ccc(-c3ccc4ccccc4c3)cc2n1 [P-0258, 4-((1R,5S)-3,8-diazabicyclo[3.2.1]octan-8-yl)-2-(((S)-1-methylpyrrolidin-2-yl)methoxy)-7-(naphthalen-2-yl)quinazoline]
- IC50 [1]: 10 to 100 µM
- IC50 [3]: 10 to 100 µM

Structure (SMILES): CN1CCC(Oc2nc(N3C[C@H]4CC[C@@H](C3)N4)c3cc(Cl)c(-c4c(O)cccc4F)c(F)c3n2)CC1 [P-0329, 2-(4-((1R,5S)-3,8-diazabicyclo[3.2.1]octan-3-yl)-6-chloro-8-fluoro-2-((1-methylpiperidin-4-yl)oxy)quinazolin-7-yl)-3-fluorophenol]
- IC50 [1]: 0.0001 to 10 µM
- IC50 [3]: 10 to 100 µM

Structure (SMILES): Cc1ccnc(-c2ccc3c(N4[C@@H]5CC[C@H]4CNC5)nc(OC[C@@H]4CCCN4C)nc3c2)c1C [P-0261, 4-((1R,5S)-3,8-diazabicyclo[3.2.1]octan-8-yl)-7-(3,4-dimethylpyridin-2-yl)-2-(((S)-1-methylpyrrolidin-2-yl)methoxy)quinazoline]
- IC50 [1]: 100 to 1000 µM
- IC50 [3]: 100 to 1000 µM

Structure (SMILES): CN1CCC[C@H]1COc1nc(N2[C@@H]3CC[C@H]2CN(C(=O)[C@@H](N)CO)C3)c2ccc(-c3cc(O)cc4ccccc34)cc2n1 [P-0223, (S)-2-amino-3-hydroxy-1-((1R,5S)-8-(7-(3-hydroxynaphthalen-1-yl)-2-(((S)-1-methylpyrrolidin-2-yl)methoxy)quinazolin-4-yl)-3,8-diazabicyclo[3.2.1]octan-3-yl)propan-1-one]
- IC50 [1]: 10 to 100 µM
- IC50 [3]: 10 to 100 µM

Structure (SMILES): CN1CCC[C@H]1COc1nc(N2CC3COCC(C2)N3C(=O)CC2SC(=O)NC2=O)c2cc(Cl)c(-c3cc(O)cc4ccccc34)c(F)c2n1 (stereo partly drawn) [P-0358, 5-(2-(7-(6-chloro-8-fluoro-7-(3-hydroxynaphthalen-1-yl)-2-(((S)-1-methylpyrrolidin-2-yl)methoxy)quinazolin-4-yl)-3-oxa-7,9-diazabicyclo[3.3.1]nonan-9-yl)-2-oxoethyl)thiazolidine-2,4-dione]
- IC50 [1]: 0.0001 to 10 µM
- IC50 [3]: 0.0001 to 10 µM

Structure (SMILES): O=C1c2ccccc2C(=O)N1Cc1nc(N2C[C@H]3CC[C@@H](C2)N3)c2cc(Cl)c(-c3c(O)cccc3F)c(F)c2n1 [P-0446, 2-((4-((1R,5S)-3,8-diazabicyclo[3.2.1]octan-3-yl)-6-chloro-8-fluoro-7-(2-fluoro-6-hydroxyphenyl)quinazolin-2-yl)methyl)isoindoline-1,3-dione]
- IC50 [1]: 10 to 100 µM
- IC50 [3]: 10 to 100 µM
